Legend:
patients with glaucoma = test: Loss of IOP lowering upon cessation of chronic topical anti-glaucoma medication (Example A); format: in vivo, human; conditions: for mean IOP from baseline on day 28: day 28, after four weeks of topical medication; for mean IOP from baseline on day 30: day 30, after 2 days with no medication
Source text: To examine loss or reduction of a therapeutic effect (i.e. IOP lowering) upon cessation of chronic medication administration used to treatment a chronic ocular condition, three different populations of patients with glaucoma were examined.
1. A population of twenty patients with glaucoma was examined.

[1] = test system: VEGF165-induced retinal vasculopathy; test: Remnant effect after intravitreal triamcinolone acetonide, VEGF165-induced retinal vasculopathy (Example 9); format: in vivo, Dutch-belted rabbits; conditions: 48 hours after VEGF165; 4 mg TA removed after one minute
Experimental: An experiment was carried out which determined existence of a remnant effect (i.e. a therapeutic effect of the active agent when a therapeutic amount of the active agent was not longer present) of intravitreal triamcinolone. Six Dutch-belted rabbits were divided into two groups of three each. After standard pars plana vitrectomy, one group received 4 mg of the glucocorticoid triamcinolone acetonide (TA) in a 0.1 ml volume (Kenalog® 40), and the other group received 0.1 ml of a 5% PLGA (poly lactic/glycolic acid) solution. One minute later the TA or PLGA was removed with a subtotal vitrectomy and soft tip needle. Forty-eight hours after the surgery VEGF165 (500 ng/50 μl) was injected intravitreally via a 29 gauge needle to induce retinal vasculopathy and assess a pharmacological action of any remnant effect of either TA or PLGA. Assessment of retinal color fundus imaging, fluorescein angiography (FA), and fluorometry was made upon VEGF administration and 48 hours following such administration to assess leak from the retina vasculature as a result of VEGF165 administration, and the effect of either TA or PLGA on such leakage.

glaucoma = conditions: after stopping topical medication; cited from earlier work
[2] = 0.1% ophthalmic suspension, 1 drop 4 times a day (approximately 200 μg per day); cited from earlier work

## CCNC(=O)CCC/C=C\C[C@@H]1[C@@H](/C=C/[C@@H](O)CCc2ccccc2)[C@H](O)C[C@@H]1O [Lumigan, Bimatoprost]
Patients with glaucoma
  mean IOP from baseline on day 28: −8 mm Hg
  mean IOP from baseline on day 30: −6 mm Hg

## CC1(C)O[C@@H]2C[C@H]3[C@@H]4CCC5=CC(=O)C=C[C@]5(C)[C@@]4(F)[C@@H](O)C[C@]3(C)[C@]2(C(=O)CO)O1 [TA, triamcinolone acetonide]
[1]
  Fluorophotometry area under the curve, change from baseline: 3±65%

## Brc1c(NC2=NCCN2)ccc2nccnc12 [brimonidine]
Patients with glaucoma; day 14, after 14 days of topical medication
  mean IOP from baseline on day 14: −2 mm Hg
Patients with glaucoma; day 15, after 24 hours with no medication
  mean IOP from baseline on day 15: −0.8 mm Hg
glaucoma
  washout period (return to baseline IOP) of topical anti-glaucoma medication: two to four and five

## C[C@@H]1C[C@H]2[C@@H]3CCC4=CC(=O)C=C[C@]4(C)[C@@]3(F)[C@@H](O)C[C@]2(C)[C@@]1(O)C(=O)CO [dexamethasone]
[2]
  share of the topical dose that reaches the anterior segment: about 1%

## CCN[C@H]1C[C@H](C)S(=O)(=O)c2sc(S(N)(=O)=O)cc21 [dorzolamide]
glaucoma
  washout period (return to baseline IOP) of topical anti-glaucoma medication: two to four

## CNC[C@H](O)c1ccc(O)c(O)c1 [epinephrine]
glaucoma
  washout period (return to baseline IOP) of topical anti-glaucoma medication: about three

## CC[C@@H]1C(=O)OC[C@@H]1Cc1cncn1C [pilocarpine]
glaucoma
  washout period (return to baseline IOP) of topical anti-glaucoma medication: about 48 hours

## CC(C)(C)NC[C@H](O)COc1nsnc1N1CCOCC1 [timolol]
Patients with glaucoma
  mean IOP from baseline on day 28: −4 mm Hg
  mean IOP from baseline on day 30: −2 mm Hg

Source: US9233071B2, “Methods for treating retinopathy with extended therapeutic effect” (Allergan, Inc., priority 2004, dated 2016)
